24 molecules from patent EP4559908A1, “HETEROARYL DERIVATIVE COMPOUND AND USE THEREOF” (S2CBio Inc., priority 2022, dated 2024) can be followed below.

Where only a bound is given, the exact number is not on record here.

For the assay, the target named is T1, human ANO6 (variant 5) (Homo sapiens, UniProt Q4KMQ2).
T1 construct: expressed in transfected cells; host or cells: Fischer rat thyroid (FRT) cells
T1 sequence (Q4KMQ2 1-931 isoform Q4KMQ2-2): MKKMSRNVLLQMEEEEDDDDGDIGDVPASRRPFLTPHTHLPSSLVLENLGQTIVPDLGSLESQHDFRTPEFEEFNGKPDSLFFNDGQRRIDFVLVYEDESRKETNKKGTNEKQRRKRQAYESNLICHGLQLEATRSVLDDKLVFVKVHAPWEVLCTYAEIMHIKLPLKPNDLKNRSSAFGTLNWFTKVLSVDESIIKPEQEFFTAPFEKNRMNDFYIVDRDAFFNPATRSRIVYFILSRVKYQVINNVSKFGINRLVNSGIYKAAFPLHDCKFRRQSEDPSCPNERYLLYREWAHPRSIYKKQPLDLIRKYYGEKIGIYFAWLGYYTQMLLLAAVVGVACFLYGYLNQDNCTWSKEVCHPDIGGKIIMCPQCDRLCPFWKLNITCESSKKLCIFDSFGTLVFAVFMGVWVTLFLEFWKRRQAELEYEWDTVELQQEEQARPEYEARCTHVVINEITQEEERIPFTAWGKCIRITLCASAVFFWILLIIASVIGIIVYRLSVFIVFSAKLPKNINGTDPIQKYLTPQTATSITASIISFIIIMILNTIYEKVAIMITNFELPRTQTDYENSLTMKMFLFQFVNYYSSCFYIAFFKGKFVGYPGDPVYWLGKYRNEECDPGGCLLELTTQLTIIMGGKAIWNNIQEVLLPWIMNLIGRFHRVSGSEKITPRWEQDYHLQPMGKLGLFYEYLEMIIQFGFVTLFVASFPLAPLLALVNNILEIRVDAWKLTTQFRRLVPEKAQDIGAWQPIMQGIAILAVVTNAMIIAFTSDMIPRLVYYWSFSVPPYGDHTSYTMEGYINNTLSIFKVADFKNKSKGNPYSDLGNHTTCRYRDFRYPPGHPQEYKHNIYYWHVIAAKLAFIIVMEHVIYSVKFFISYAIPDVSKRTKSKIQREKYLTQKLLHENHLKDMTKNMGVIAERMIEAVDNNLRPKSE
The experiment in a line: Lact C2 assay (measuring phosphatidylserine externalization scramblase function). The format is cell-based. As to conditions: FRT, FRT cells expressing human ANO6 (variant 5), ionomycin 10 µM, Lact-C2-GFP fluorescence, average of three tests; for inhibition at 0.05 µM: compound 50 nM, read-out: % Inhibition 50 nM; for inhibition at 0.1 µM: compound 100 nM; for inhibition at 1 µM: compound 1 µM, read-out: % Inhibition 1 µM. An outline of the steps:
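Cells were pretreated 10 min with compound (50 nM, 100 nM, 1 µM; 1% DMSO), then given 10 µM ionomycin for 10 min. Surface phosphatidylserine was stained with 500 nM Lact-C2-GFP (10 min, 37 °C), fixed and imaged. Inhibition was scaled between untreated (100%) and ionomycin-alone (0%) wells.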

As for `Fc1ccc2nc(-c3cccc(Nc4ncc(-c5ccccn5)cn4)c3)[nH]c2c1` [Example 45, N-[3-(6-fluoro-1H-benzo[d]imidazol-2-yl)phenyl]-5-(pyridin-2-yl)pyrimidin-2-amine], the inhibition – broadly, the relative decrease from the control value, in per cent – at 0.05 µM is more than 60% and the inhibition at 0.1 µM was more than 60%.
Take `CC(C)OC(=O)c1ccc2nc(-c3cccc(Nc4ccc(-c5cccnn5)cc4)c3)[nH]c2c1` [Example 111, isopropyl 2-(3-((4-(pyridazin-3-yl)phenyl)amino)phenyl)-1H-benzo[d]imidazole-6-carboxylate]: the inhibition at 0.05 µM lay in the range of 30 to 60% and the inhibition at 1 µM was more than 60%.
On to `FC(F)(F)c1ccc2nc(-c3cncc(Nc4ccc(-c5cccnn5)cc4)c3)[nH]c2c1` [Example 262, N-(4-(pyridazin-3-yl)phenyl)-5-(6-(trifluoromethyl)-1H-benzo[d]imidazol-2-yl)pyridin-3-amine], for which the inhibition at 0.05 µM is more than 60%.
`FC(F)(F)c1ccc2nc(-c3cccc(Nc4ncc(-c5ccccc5)cn4)c3)[nH]c2c1` [Example 14, 5-phenyl-N-(3-(6-(trifluoromethyl)-1H-benzo[d]imidazol-2-yl)phenyl)pyrimidin-2-amine]: the inhibition at 0.05 µM is more than 60%, the inhibition at 0.1 µM was more than 60% and the inhibition at 1 µM was more than 60%.
For the molecule `c1ccc(-c2ccc(Nc3cccc(-c4nc5ccccc5[nH]4)c3)cc2)cc1` [Example 19, N-[3-(1H-benzo[d]imidazol-2-yl)phenyl]-[1,1'-biphenyl]-4-amine], the inhibition at 0.05 µM fell in the range of 30 to 60%, the inhibition at 0.1 µM is more than 60% and the inhibition at 1 µM is more than 60%.
Regarding `Cc1cccc2nc(-c3cccc(Nc4ccc(-c5cccnn5)cc4)c3)[nH]c12` [Example 101, 3-(7-methyl-1H-benzo[d]imidazol-2-yl)-N-(4-pyridazin-3-ylphenyl)aniline], the inhibition at 0.05 µM was more than 60% and the inhibition at 1 µM is more than 60%.
Consider `FC(F)(F)c1ccc2nc(-c3cccc(Nc4ccc(-c5ncccn5)cc4)c3)[nH]c2c1` [Example 27, N-[4-(pyrimidin-2-yl)phenyl]-3-[6-(trifluoromethyl)-1H-benzo[d]imidazol-2-yl]aniline], for which the inhibition at 0.05 µM was more than 60%, the inhibition at 0.1 µM was more than 60% and the inhibition at 1 µM was more than 60%.
Regarding `FC(F)(F)c1ccc2nc(-c3cccc(Nc4cnc(-c5ccccn5)cn4)c3)[nH]c2c1` [Example 302, 5-(pyridin-2-yl)-N-(3-(6-(trifluoromethyl)-1H-benzo[d]imidazol-2-yl)phenyl)pyrazin-2-amine], the inhibition at 0.05 µM is more than 60% and the inhibition at 1 µM was more than 60%.
On to `FC(F)(F)c1ccc2nc(-c3cccc(Nc4ccc(-c5ccncn5)nn4)c3)[nH]c2c1` [Example 296, 6-(pyrimidin-4-yl)-N-(3-(6-(trifluoromethyl)-1H-benzo[d]imidazol-2-yl)phenyl)pyridazin-3-amine], for which the inhibition at 1 µM was 30 to 60%.
Still for that read-out and setting: next, `Fc1cc(F)c2[nH]c(-c3cccc(Nc4ncc(-c5cccnn5)cn4)c3)nc2c1` [Example 292, N-(3-(5,7-difluoro-1H-benzo[d]imidazol-2-yl)phenyl)-5-(pyridazin-3-yl)pyrimidin-2-amine]: 30 to 60%.
For the molecule `O=[N+]([O-])c1ccc2nc(-c3cccc(Nc4ccc(-c5cccnn5)cc4)c3)[nH]c2c1` [Example 227, 3-(6-nitro-1H-benzo[d]imidazol-2-yl)-N-(4-(pyridazin-3-yl)phenyl)aniline], the inhibition at 0.05 µM is more than 60% and the inhibition at 1 µM is more than 60%.
As to `c1cc(Nc2ncc(-c3ncco3)cn2)cc(-c2nc3ccccc3[nH]2)c1` [Example 171, N-[3-(1H-benzo[d]imidazol-2-yl)phenyl]-5-oxazol-2-yl-pyrimidin-2-amine], the inhibition at 1 µM lay within 30 to 60%.
For the molecule `CC(C)(C)c1ccc2nc(-c3cccc(Nc4ccc(-c5cccnn5)cc4)c3)[nH]c2c1` [Example 107, 3-(6-tert-butyl-1H-benzo[d]imidazol-2-yl)-N-(4-pyridazin-3-ylphenyl)aniline], the inhibition at 0.05 µM was 30 to 60% and the inhibition at 1 µM was more than 60%.
The corresponding values for `Cc1ccc2nc(-c3cccc(Nc4ccc(-c5cccnn5)cc4)c3)[nH]c2c1` [Example 105, 3-(6-methyl-1H-benzo[d]imidazol-2-yl)-N-(4-pyridazin-3-ylphenyl)aniline] are more than 60% and more than 60%.
`Fc1ccc2nc(-c3cccc(Nc4ccc(-c5ccccn5)cn4)c3)[nH]c2c1` [Example 58, N-(3-(6-fluoro-1H-benzo[d]imidazol-2-yl)phenyl)-[2,3'-bipyridine]-6'-amine]: the inhibition at 0.05 µM was more than 60% and the inhibition at 0.1 µM is more than 60%.
On to `Fc1cccc(-c2cnc(Nc3cccc(-c4nc5ccc(C(F)(F)F)cc5[nH]4)c3)nc2)n1` [Example 258, 5-(6-fluoropyridin-2-yl)-N-(3-(6-(trifluoromethyl)-1H-benzo[d]imidazol-2-yl)phenyl)pyrimidin-2-amine], for which the inhibition at 0.05 µM is more than 60% and the inhibition at 1 µM is more than 60%.
Turning to `c1ccc(-c2ccc(Nc3cccc(-c4nc5ccccc5[nH]4)c3)cc2)nc1` [Example 20, 3-(1H-benzo[d]imidazol-2-yl)-N-(4-(pyridin-2-yl)phenyl)aniline], the inhibition at 0.05 µM was more than 60%, the inhibition at 0.1 µM is more than 60% and the inhibition at 1 µM is more than 60%.
As for `FC(F)(F)c1ccc2nc(-c3cccc(Nc4ccc(-c5ccccn5)cc4)c3)[nH]c2c1` [Example 98, N-[4-(2-pyridyl)phenyl]-3-[6-(trifluoromethyl)-1H-benzo[d]imidazol-2-yl]aniline], the inhibition at 0.05 µM is more than 60% and the inhibition at 1 µM is more than 60%.
For `c1cc(Nc2ccc(C3CCCCC3)cc2)cc(-c2nc3ccccc3[nH]2)c1` [Example 97, 3-(1H-benzo[d]imidazol-2-yl)-N-(4-cyclohexylphenyl)aniline], the inhibition at 1 µM is more than 60%.
Still for that read-out and setting: next, `CN1CCN(CCOc2ccc(-c3nc4ccc(C(F)(F)F)cc4[nH]3)cc2Nc2ccc(-c3cnccn3)cc2)CC1` [Example 175, 2-[2-(4-methylpiperazin-1-yl)ethoxy]-N-(4-pyrazin-2-ylphenyl)-5-[6-(trifluoromethyl)-1H-benzo[d]imidazol-2-yl]aniline]: more than 60%.
With `c1cnc(-c2ccc(Nc3cccc(-c4nc5ccccc5[nH]4)c3)nc2)nc1` [Example 69, N-(3-(lH-benzo[d]imidazol-2-yl)phenyl)-5-(pyrimidin-2-yl)pyridin-2-amine], the inhibition at 0.1 µM was 30 to 60%.
`c1cc(Nc2ccc(-c3cccnn3)cn2)cc(-c2nc3ccccc3[nH]2)c1` [Example 56, N-[3-(1H-benzo[d]imidazol-2-yl)phenyl]-5-(pyridazin-3-yl)pyridin-2-amine]: the inhibition at 0.05 µM lay within 30 to 60% and the inhibition at 0.1 µM is more than 60%.
The corresponding values for `FC(F)(F)c1ccc2nc(-c3cccc(Nc4ncc(-c5ncccn5)cn4)c3)[nH]c2c1` [Example 63, N-{3-[6-(trifluoromethyl)-1H-benzo[d]imidazol-2-yl]phenyl}-[2,5'-bipyrimidin]-2'-amine] are more than 60% and more than 60%.
As for `FC(F)(F)c1ccc2nc(-c3cccc(Nc4ccc(-c5ccccn5)nn4)c3)[nH]c2c1` [Example 256, 6-(pyridin-2-yl)-N-(3-(6-(trifluoromethyl)-1H-benzo[d]imidazol-2-yl)phenyl)pyridazin-3-amine], the inhibition at 1 µM is more than 60%.
